What was measured:
[1] = system: patients suffering from Crohn's disease; assay: Clinical course, response and tolerability in Crohn's disease patient case reports; assay type: in vivo, human; details: for adverse reaction: affecting skin and joints
From the text: (§1) Several patients suffering from Crohn's disease for at least 5 years without sufficient response to standard treatment were given rebamipide tablets three times a day. […] The severity of the disease was quantified by the CDAI, and the level of inflammation by fecal calprotectin.

[2] = oral administration; cited from earlier work
[3] = system: patients suffering from Crohn's disease; assay: Crohn's Disease Activity Index (CDAI) in Crohn's disease patients given rebamipide tablets; assay type: in vivo, human
From the text: as §1
Crohn's Disease Activity Index (CDAI) is a research tool used to quantify the symptoms of patients with Crohn's disease. It consists of eight factors, each summed after adjustment with a weighting factor. Remission of Crohn's disease is defined as CDAI below 150, whereas severe disease is defined as a value of greater than 450.

Calprotectin (FC) = assay: Fecal calprotectin in stool samples by ELISA kit (EK-CAL, Bühlmann); assay type: in vivo, human; details: for fecal calprotectin level: Example 1; for calprotectin: Example 2
From the text: as §1
Calprotectin (FC) is a small calcium-binding protein that is used as a biomarker for inflammatory bowel diseases since its fecal concentration correlates well with the disease severity. Calprotectin values lower than 200 μg/g feces are considered the normal level. It was measured in stool samples using commercially available enzyme-linked immunosorbent assay (ELISA) kit (EK-CAL, Bühlmann).

[4] = summary of patient sample, add-on to corticosteroid

Molecule: infliximab: monoclonal antibody against TNFα
- adverse reaction ([1]; Example 1): immunological response had developed

Molecule: Cn1cnc([N+](=O)[O-])c1Sc1ncnc2nc[nH]c12 [azathioprine]
- adverse reaction leading to discontinuation ([1]; Example 3, discontinued after two weeks): acute pancreatitis

Molecule: CCCC1O[C@@H]2C[C@H]3[C@@H]4CCC5=CC(=O)C=C[C@]5(C)[C@H]4[C@@H](O)C[C@]3(C)[C@]2(C(=O)CO)O1 (stereo partly shown) [budesonide]
- duration of maintained remission ([1]; Example 3, therapy with budesonide and mesalazine): about 10 years

Molecule: C[C@H]1C[C@@H]2[C@H]([C@@H](O)C[C@@]3(C)[C@H]2CC[C@]3(O)C(=O)CO)[C@@]2(C)C=CC(=O)C=C12 [methylprednisolon]
- treatment outcome of corticosteroid alone after relapse ([1]; Example 1, methylprednisolon 24 mg/day before rebamipide): without success

Molecule: adalimumab
- adverse reaction ([1]; Example 1): immunological response had developed

Molecule: C[C@]12C=CC(=O)C=C1CC[C@@H]1[C@@H]2C(=O)C[C@@]2(C)[C@H]1CC[C@]2(O)C(=O)CO [prednisone]
- treatment outcome of corticosteroid alone after relapse ([1]; Example 2, prednisone 40 mg/day before rebamipide): not able to reach remission

Molecule: O=C(NC(Cc1cc(=O)[nH]c2ccccc12)C(=O)O)c1ccc(Cl)cc1 (stereo not shown) [rebamipide, 2-[(4-chlorobenzoyl)amino]-3-(2-oxo-1H-quinolin-4-yl)propanoic acid]
- disease activity on rebamipide only after corticosteroid withdrawal ([1]; Example 1, patient continued only rebamipide): No worsening in disease activity
- disease activity on rebamipide only after prednisone discontinuation ([1]; Example 2, patient continued only rebamipide 100 mg t.i.d.): No worsening in disease activity
- clinical symptoms ([1]; Example 3, after 14 days of rebamipide 100 mg three times daily with prednisone 50 mg/day): alleviation of the clinical symptoms
- disease activity on rebamipide only after prednisone withdrawal ([1]; Example 3, patient continued only rebamipide): No worsening in disease activity
- maintenance of remission ([1]; rebamipide alone, long-term): able to maintain remission
- tolerability of long-term therapy ([1]; rebamipide alone, long-term): well tolerated
- remission in patients who exhausted standard treatment options [1, 4]: induce remission
- absorption in the GI tract [2]: poorly absorbed
- CDAI ([3]; Example 1, person, Crohn's ileocolitis, rebamipide 100 mg three times daily with methylprednisolon 24 mg/day, after 6 weeks, relapse value 358): 181 points
- CDAI ([3]; Example 1, after another 6 weeks, corticosteroid dose reduced to half, rebamipide 100 mg three times daily): 73 points
- CDAI ([3]; Example 2, person, Crohn's ileocolitis, rebamipide 200 mg t.i.d. add-on to prednisone 40 mg/day, after 6 weeks, relapse value 479): 225 points
- CDAI ([3]; Example 2, after another 6 weeks, rebamipide 100 mg t.i.d., prednisone tapered from 30 mg/day by 10 mg every 2 weeks): 84 points
- CDAI ([3]; Example 3, person, Crohn's ileitis, rebamipide 100 mg three times daily with prednisone 50 mg/day, 25 mg after 14 days, after another 6 weeks, initial value 377): 98 points
- fecal calprotectin level (Calprotectin (FC); after another 6 weeks, corticosteroid dose reduced to half, rebamipide 100 mg three times daily): 63 µg/g
- fecal calprotectin level (Calprotectin (FC); rebamipide 100 mg three times daily with methylprednisolon 24 mg/day, after 6 weeks, relapse value up to 1939): 228 µg/g
- calprotectin (Calprotectin (FC); after another 6 weeks, rebamipide 100 mg t.i.d., prednisone tapered from 30 mg/day by 10 mg every 2 weeks): 110 µg/g
- calprotectin (Calprotectin (FC); rebamipide 200 mg t.i.d. add-on to prednisone 40 mg/day, after 6 weeks, relapse value 2215): 356 µg/g
- calprotectin level (Calprotectin (FC); Example 3, rebamipide 100 mg three times daily with prednisone 50 mg/day, 25 mg after 14 days, after another 6 weeks, initial value up to 1051): 122 µg/g
- effect on calprotectin levels (Calprotectin (FC); [4]): normalize calprotectin levels
